According to patent publication US20100286076A1, “ECTOPARASITICIDAL METHODS AND FORMULATIONS” (priority 2009, published 2010):

Test system: Ctenocephalides felis
Assay: Pulse vs. single dose administration per os to dogs, flea infestation comb counts
Format: in vivo
Method: Pulse vs. Single dose administration per os to dogs/Ctenocephalides felis Another dog study was undertaken to evaluate the effect on flea infestation of 1) oral administration of a single point dose of 60 mg/kg; 2) oral administration of a pulsed dosing scheme of 20 mg/kg TID every 2 hours for one day; 3) oral administration of a pulsed dosing scheme of 20 mg/kg TID every 4 hours for one day; and 4) post-treatment plasma concentration of spinetoram.
Four treatment groups of 8 dogs each (4 male: 4 female) were dosed spinetoram as follows:
Treatment Group 1: 60 mg/kg, single dose
Treatment Group 2: 60 mg/kg, (20 mg/kg every 2 hours, three times)
Treatment Group 3: 60 mg/kg, (20 mg/kg every 4 hours, three times)
Treatment Group 4: 0 mg/kg, (negative control)
The dogs were housed individually in concrete-floored chain-link kennels both inside and outside. During the study period the dogs were fed a dry dog chow, except for two days prior to and the day of treatment (day 0) when they received wet canned food. The dogs had ad libitum access to water.
The treated dogs received one or more gelatin capsules containing technical active spinetoram powder by mouth, with treatment group 4 receiving placebo. Each dog was experimentally infested with about 100 fleas on test days—1,5,12,19, 28, 35, 42, 49, and 56. Knockdown assessments were conducted 24 hours after dosing, with residual efficacy evaluated subsequently at 48 hours after each subsequent infestation. The day 1 comb count served to determine the initial/knockdown efficacy, approximately 24 hours after the 60 mg/kg dose, or the first of the pulse dose. Blood samples were drawn to determine concentration of spinetoram in plasma.

Spinetoram
0.0: geometric mean live adult flea count (oral 20 mg/kg TID@2 h, Day 1) | geometric mean live adult flea count (oral 20 mg/kg TID@2 h, Day 7) | geometric mean live adult flea count (oral 20 mg/kg TID@2 h, Day 14) | geometric mean live adult flea count (oral 20 mg/kg TID@2 h, Day 21) | geometric mean live adult flea count (oral 20 mg/kg TID@2 h, Day 30) | geometric mean live adult flea count (oral 20 mg/kg TID@2 h, Day 37) | geometric mean live adult flea count (oral 20 mg/kg TID@2 h, Day 44) | geometric mean live adult flea count (oral 20 mg/kg TID@2 h, Day 51) | geometric mean live adult flea count (oral 20 mg/kg TID@2 h, Day 58) | geometric mean live adult flea count (oral 20 mg/kg TID@2 h, Day 72) | geometric mean live adult flea count (oral 20 mg/kg TID@4 h, Day 1) | geometric mean live adult flea count (oral 20 mg/kg TID@4 h, Day 7) | geometric mean live adult flea count (oral 20 mg/kg TID@4 h, Day 14) | geometric mean live adult flea count (oral 20 mg/kg TID@4 h, Day 21) | geometric mean live adult flea count (oral 20 mg/kg TID@4 h, Day 37) | geometric mean live adult flea count (oral 20 mg/kg TID@4 h, Day 44) | geometric mean live adult flea count (oral 20 mg/kg TID@4 h, Day 58) | geometric mean live adult flea count (oral 60 mg/kg SID, Day 1) | geometric mean live adult flea count (oral 60 mg/kg SID, Day 7) | geometric mean live adult flea count (oral 60 mg/kg SID, Day 14) | geometric mean live adult flea count (oral 60 mg/kg SID, Day 21) | geometric mean live adult flea count (oral 60 mg/kg SID, Day 30) | geometric mean live adult flea count (oral 60 mg/kg SID, Day 37) | geometric mean live adult flea count (oral 60 mg/kg SID, Day 44) | geometric mean live adult flea count (oral 60 mg/kg SID, Day 51) | geometric mean live adult flea count (oral 60 mg/kg SID, Day 72)
1.8: geometric mean live adult flea count (oral 60 mg/kg SID, Day 86)
(100) percent: geometric mean percent reduction in live adult flea counts compared to the untreated control group (oral 20 mg/kg TID@2 h, Day 1) | geometric mean percent reduction in live adult flea counts compared to the untreated control group (oral 20 mg/kg TID@2 h, Day 7) | geometric mean percent reduction in live adult flea counts compared to the untreated control group (oral 20 mg/kg TID@2 h, Day 14) | geometric mean percent reduction in live adult flea counts compared to the untreated control group (oral 20 mg/kg TID@2 h, Day 21) | geometric mean percent reduction in live adult flea counts compared to the untreated control group (oral 20 mg/kg TID@2 h, Day 30) | geometric mean percent reduction in live adult flea counts compared to the untreated control group (oral 20 mg/kg TID@2 h, Day 37) | geometric mean percent reduction in live adult flea counts compared to the untreated control group (oral 20 mg/kg TID@2 h, Day 44) | geometric mean percent reduction in live adult flea counts compared to the untreated control group (oral 20 mg/kg TID@2 h, Day 51) | geometric mean percent reduction in live adult flea counts compared to the untreated control group (oral 20 mg/kg TID@2 h, Day 58) | geometric mean percent reduction in live adult flea counts compared to the untreated control group (oral 20 mg/kg TID@2 h, Day 72) | geometric mean percent reduction in live adult flea counts compared to the untreated control group (oral 20 mg/kg TID@4 h, Day 1) | geometric mean percent reduction in live adult flea counts compared to the untreated control group (oral 20 mg/kg TID@4 h, Day 7) | geometric mean percent reduction in live adult flea counts compared to the untreated control group (oral 20 mg/kg TID@4 h, Day 14) | geometric mean percent reduction in live adult flea counts compared to the untreated control group (oral 20 mg/kg TID@4 h, Day 21) | geometric mean percent reduction in live adult flea counts compared to the untreated control group (oral 20 mg/kg TID@4 h, Day 37) | geometric mean percent reduction in live adult flea counts compared to the untreated control group (oral 20 mg/kg TID@4 h, Day 44) | geometric mean percent reduction in live adult flea counts compared to the untreated control group (oral 20 mg/kg TID@4 h, Day 58) | geometric mean percent reduction in live adult flea counts compared to the untreated control group (oral 60 mg/kg SID, Day 1) | geometric mean percent reduction in live adult flea counts compared to the untreated control group (oral 60 mg/kg SID, Day 7) | geometric mean percent reduction in live adult flea counts compared to the untreated control group (oral 60 mg/kg SID, Day 21) | geometric mean percent reduction in live adult flea counts compared to the untreated control group (oral 60 mg/kg SID, Day 30) | geometric mean percent reduction in live adult flea counts compared to the untreated control group (oral 60 mg/kg SID, Day 37) | geometric mean percent reduction in live adult flea counts compared to the untreated control group (oral 60 mg/kg SID, Day 44) | geometric mean percent reduction in live adult flea counts compared to the untreated control group (oral 60 mg/kg SID, Day 51) | geometric mean percent reduction in live adult flea counts compared to the untreated control group (oral 60 mg/kg SID, Day 72)
2.5: geometric mean live adult flea count (oral 20 mg/kg TID@2 h, Day 93)
3.2: geometric mean live adult flea count (oral 60 mg/kg SID, Day 107)
100) percent: geometric mean percent reduction in live adult flea counts compared to the untreated control group (oral 60 mg/kg SID, Day 14)
8.5: geometric mean live adult flea count (oral 20 mg/kg TID@4 h, Day 107)
10.0: geometric mean live adult flea count (oral 20 mg/kg TID@2 h, Day 100)
(91.7) percent: geometric mean percent reduction in live adult flea counts compared to the untreated control group (oral 20 mg/kg TID@2 h, Day 86)
(94.1) percent: geometric mean percent reduction in live adult flea counts compared to the untreated control group (oral 20 mg/kg TID@2 h, Day 107)
(97.5) percent: geometric mean percent reduction in live adult flea counts compared to the untreated control group (oral 60 mg/kg SID, Day 93)
(89.6) percent: geometric mean percent reduction in live adult flea counts compared to the untreated control group (oral 20 mg/kg TID@4 h, Day 107)
0.2: geometric mean live adult flea count (oral 20 mg/kg TID@4 h, Day 30) | geometric mean live adult flea count (oral 20 mg/kg TID@4 h, Day 51) | geometric mean live adult flea count (oral 20 mg/kg TID@4 h, Day 72) | geometric mean live adult flea count (oral 60 mg/kg SID, Day 58)
5.2: geometric mean live adult flea count (oral 60 mg/kg SID, Day 100)
(99.7) percent: geometric mean percent reduction in live adult flea counts compared to the untreated control group (oral 20 mg/kg TID@4 h, Day 51)
(93.8) percent: geometric mean percent reduction in live adult flea counts compared to the untreated control group (oral 20 mg/kg TID@4 h, Day 86)
1.9: geometric mean live adult flea count (oral 60 mg/kg SID, Day 93)
(86.3) percent: geometric mean percent reduction in live adult flea counts compared to the untreated control group (oral 20 mg/kg TID@4 h, Day 100)
4.8: geometric mean live adult flea count (oral 20 mg/kg TID@2 h, Day 107) | geometric mean live adult flea count (oral 20 mg/kg TID@4 h, Day 93)
(99.8) percent: geometric mean percent reduction in live adult flea counts compared to the untreated control group (oral 20 mg/kg TID@4 h, Day 30) | geometric mean percent reduction in live adult flea counts compared to the untreated control group (oral 20 mg/kg TID@4 h, Day 72) | geometric mean percent reduction in live adult flea counts compared to the untreated control group (oral 60 mg/kg SID, Day 58)
(93.7) percent: geometric mean percent reduction in live adult flea counts compared to the untreated control group (oral 20 mg/kg TID@4 h, Day 93) | geometric mean percent reduction in live adult flea counts compared to the untreated control group (oral 60 mg/kg SID, Day 100)
11.4: geometric mean live adult flea count (oral 20 mg/kg TID@4 h, Day 100)
(97.7) percent: geometric mean percent reduction in live adult flea counts compared to the untreated control group (oral 60 mg/kg SID, Day 86)
(88.0) percent: geometric mean percent reduction in live adult flea counts compared to the untreated control group (oral 20 mg/kg TID@2 h, Day 100)
6.4: geometric mean live adult flea count (oral 20 mg/kg TID@2 h, Day 86)
(96.2) percent: geometric mean percent reduction in live adult flea counts compared to the untreated control group (oral 60 mg/kg SID, Day 107)
(96.7) percent: geometric mean percent reduction in live adult flea counts compared to the untreated control group (oral 20 mg/kg TID@2 h, Day 93)
4.7: geometric mean live adult flea count (oral 20 mg/kg TID@4 h, Day 86)
